Reference: ChEMBL document CHEMBL1140273, “Carbonic anhydrase inhibitors: novel sulfonamides incorporating 1,3,5-triazine moieties as inhibitors of the cytosolic and tumour-associated carbonic anhydrase isozymes I, II and IX” (Bioorg Med Chem Lett, 2005)

biological target: Carbonic anhydrase 9 (Homo sapiens, UniProt Q16790)

Row | Ki [nM] | SMILES
1 | 7.5 | CCN(CC)c1nc(NCc2ccc(S(N)(=O)=O)cc2)nc(N(CC)CC)n1
2 | 56 | CCCNc1nc(NCCC)nc(Nc2ccc(S(N)(=O)=O)cc2)n1

Second part, the molecule before the results:

Row | SMILES | Ki [nM]
3 | NS(=O)(=O)c1ccc(Nc2nc(Oc3ccccc3)nc(Oc3ccccc3)n2)cc1 | 254
4 | NS(=O)(=O)c1ccc(CCNc2nc(Cl)nc(NCC(=O)O)n2)cc1 | 1
5 | CC(C)Nc1nc(NCc2ccc(S(N)(=O)=O)cc2)nc(NC(C)C)n1 | 16
